Results from patent US20110245351A1, “MEDICAL ADHESIVE FOR SURGERY” (BAYER MATERIALSCIENCE AG, priority 2008, published 2011).

Experiment: Processing / curing time of the adhesive from prepolymer A-1 and secondary diamine
Format: physicochemical
Conditions: 1 g prepolymer A-1 with equivalent quantity of diamine, applied thinly onto tissue
Method: 1 g of the prepolymer A-1 were stirred well in a beaker with an equivalent quantity of dimethyl 2,2′-(pentane-1,5-diylbis(azandiyl))bis(4-methylpentanoate). Directly after this, the reaction mixture was applied thinly onto the tissue to be glued. […] After 2 mins, the surface of the adhesive was no longer tacky.

Row | Curing to a transparent film [min] | Time after which surface of the adhesive was no longer tacky [min] | Structure (SMILES)
1 | ≤ 1 | 2 | COC(=O)C(CC(C)C)NCCCCCNC(CC(C)C)C(=O)OC (stereo not drawn) [Example 2, Dimethyl 2,2′-(pentan-1,5-diylbis(azandiyl))bis(4-methylpentanoate)]

Same assay, conditions: diamine as curing agent for prepolymer A-1

Row | Processing time [min] | Structure (SMILES)
2 | 0.7 | CCOC(=O)C(C)NCCCCNC(C)C(=O)OCC (stereo not drawn)
3 | 0.55 | CCOC(=O)C(C)NCCCCCNC(C)C(=O)OCC (stereo not drawn)
4 | 4 | COC(=O)C(Cc1ccccc1)NCCCNC(Cc1ccccc1)C(=O)OC (stereo not drawn)
5 | 4 | COC(=O)C(Cc1ccccc1)NCCCCCCNC(Cc1ccccc1)C(=O)OC (stereo not drawn)
6 | 3 | CCC(C)C(NCCCNC(C(=O)OC)C(C)CC)C(=O)OC (stereo not drawn)
7 | 4 | COC(=O)C(NCCCNC(C(=O)OC)C(C)C)C(C)C (stereo not drawn)
8 | 4 | COC(=O)C(CC(C)C)NCCCCCNC(CC(C)C)C(=O)OC (stereo not drawn) [drawing 17]
